ChEMBL document CHEMBL1201862, “PubChem BioAssay data set” (2004)
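Where inhibition never reached the appropriate level, the endpoint shown equals the highest concentration tested. Otherwise, values were interpolated linearly from a five-concentration, 48-hour dose response in 96-well plates. GI50: concentration for 50% inhibition of growth.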 Activity calls are given as the source filed them. No stated cut-off is given here; in the data, active = GI50 up to about 1.1 µM and inactive = higher.

Columns and labels:
Experiment in all cases: growth of human tumour cells (NCI), 48 h
786-0 = system: 786-0
ACHN = system: ACHN
CCRF-CEM = system: CCRF-CEM
DMS-114 = system: DMS-114
DMS-273 = system: DMS-273
HCC 2998 = system: HCC 2998
HOP-18 = system: HOP-18
HOP-62 = system: HOP-62
IGROV-1 = system: IGROV-1
LOX IMVI = system: LOX IMVI
LXFL 529 = system: LXFL 529
M14 = system: M14
NCI-H460 = system: NCI-H460
RPMI-8226 = system: RPMI-8226
SN12C = system: SN12C
KM-20L2 = system: KM-20L2
UACC-257 = system: UACC-257

Measured: GI50

O=[N+]([O-])c1ccc(N2N=C(c3ccc(NCc4nc5ccccc5[nH]4)cc3)CC2c2ccco2)cc1 (stereo unspecified)
inactive: 786-0 44 µM | ACHN 22.8 µM | CCRF-CEM 21.6 µM | DMS-114 18.1 µM | DMS-273 21.2 µM | HCC 2998 30.9 µM | HOP-18 50.5 µM | HOP-62 37.2 µM | IGROV-1 33 µM | LOX IMVI 18.5 µM | LXFL 529 11.1 µM | M14 23.5 µM | NCI-H460 24.8 µM | RPMI-8226 12.4 µM | SN12C 20.3 µM

CN1C(=O)CCC1c1ccc2c(c1)oc(=O)n2C (stereo unspecified)
inactive: 786-0 > 100 µM | ACHN > 100 µM | CCRF-CEM > 100 µM | DMS-114 > 100 µM | DMS-273 > 100 µM | HCC 2998 > 100 µM | HOP-18 > 100 µM | HOP-62 > 100 µM | IGROV-1 > 100 µM | KM-20L2 > 100 µM | LOX IMVI > 100 µM | LXFL 529 > 100 µM | M14 > 100 µM | NCI-H460 > 100 µM | RPMI-8226 > 100 µM | SN12C > 100 µM | UACC-257 > 100 µM

CCN(CC)c1cccc2c1/C(=N/O)CCCC2
inactive: 786-0 > 100 µM | ACHN > 100 µM | CCRF-CEM > 100 µM | DMS-114 52.8 µM | DMS-273 > 100 µM | HOP-18 > 100 µM | HOP-62 > 100 µM | KM-20L2 > 100 µM | LOX IMVI > 100 µM | LXFL 529 > 100 µM | NCI-H460 74.5 µM | RPMI-8226 56.2 µM | SN12C > 100 µM | UACC-257 65 µM
